The values below come from ChEMBL document CHEMBL5465560, “Selectivity Literature for EUbOPEN Chemogenomic Library” (2024).

For assay [1], the target named is T1, Serine/threonine-protein kinase ULK3 (Homo sapiens) (UniProt Q6PHR2).
T1 sequence (whole entry): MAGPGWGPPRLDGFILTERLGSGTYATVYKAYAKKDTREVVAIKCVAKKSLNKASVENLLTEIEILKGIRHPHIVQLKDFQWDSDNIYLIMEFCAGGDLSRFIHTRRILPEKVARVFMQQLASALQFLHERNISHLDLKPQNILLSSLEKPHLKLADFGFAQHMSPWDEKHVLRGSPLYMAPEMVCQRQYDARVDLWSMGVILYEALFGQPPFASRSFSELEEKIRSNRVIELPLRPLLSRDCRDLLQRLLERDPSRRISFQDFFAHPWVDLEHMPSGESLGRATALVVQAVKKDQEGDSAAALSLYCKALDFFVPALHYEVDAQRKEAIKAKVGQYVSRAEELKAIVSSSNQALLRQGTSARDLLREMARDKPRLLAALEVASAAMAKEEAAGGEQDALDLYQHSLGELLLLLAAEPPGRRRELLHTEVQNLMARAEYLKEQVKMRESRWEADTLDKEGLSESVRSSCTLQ
Briefly: Selectivity interaction (LanthaScreen Eu Kinase Binding Assay) EUB0001632a ULK3. The settings on record: at 10 µM. (In general: In TR-FRET formats the signal depends on donor and acceptor labels being close together.)

Assay [2] addresses T2, Rhodopsin kinase GRK7 (Homo sapiens) (UniProt Q8WTQ7).
T2 sequence (whole entry): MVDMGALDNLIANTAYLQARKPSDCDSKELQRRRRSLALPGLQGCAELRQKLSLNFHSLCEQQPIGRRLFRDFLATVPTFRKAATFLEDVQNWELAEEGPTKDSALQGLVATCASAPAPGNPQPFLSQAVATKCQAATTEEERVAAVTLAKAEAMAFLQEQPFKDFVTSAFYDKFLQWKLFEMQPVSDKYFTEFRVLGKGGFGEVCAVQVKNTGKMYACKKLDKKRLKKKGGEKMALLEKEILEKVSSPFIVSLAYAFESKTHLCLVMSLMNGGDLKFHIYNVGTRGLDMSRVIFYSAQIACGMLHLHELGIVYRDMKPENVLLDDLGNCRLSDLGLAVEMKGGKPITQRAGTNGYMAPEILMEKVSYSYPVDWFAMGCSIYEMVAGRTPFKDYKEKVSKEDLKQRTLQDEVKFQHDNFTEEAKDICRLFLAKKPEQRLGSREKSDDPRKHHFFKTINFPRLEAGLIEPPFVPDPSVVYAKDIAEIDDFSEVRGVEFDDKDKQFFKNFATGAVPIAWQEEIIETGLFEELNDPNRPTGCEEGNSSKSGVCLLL
Briefly: Selectivity interaction (KinomeScan (DiscoverX)) EUB0001619a GRK7. The settings on record: at 1 µM.

In assay [3] the target is T3, Hormonally up-regulated neu tumor-associated kinase (Homo sapiens) (UniProt P57058).
T3 sequence (whole entry): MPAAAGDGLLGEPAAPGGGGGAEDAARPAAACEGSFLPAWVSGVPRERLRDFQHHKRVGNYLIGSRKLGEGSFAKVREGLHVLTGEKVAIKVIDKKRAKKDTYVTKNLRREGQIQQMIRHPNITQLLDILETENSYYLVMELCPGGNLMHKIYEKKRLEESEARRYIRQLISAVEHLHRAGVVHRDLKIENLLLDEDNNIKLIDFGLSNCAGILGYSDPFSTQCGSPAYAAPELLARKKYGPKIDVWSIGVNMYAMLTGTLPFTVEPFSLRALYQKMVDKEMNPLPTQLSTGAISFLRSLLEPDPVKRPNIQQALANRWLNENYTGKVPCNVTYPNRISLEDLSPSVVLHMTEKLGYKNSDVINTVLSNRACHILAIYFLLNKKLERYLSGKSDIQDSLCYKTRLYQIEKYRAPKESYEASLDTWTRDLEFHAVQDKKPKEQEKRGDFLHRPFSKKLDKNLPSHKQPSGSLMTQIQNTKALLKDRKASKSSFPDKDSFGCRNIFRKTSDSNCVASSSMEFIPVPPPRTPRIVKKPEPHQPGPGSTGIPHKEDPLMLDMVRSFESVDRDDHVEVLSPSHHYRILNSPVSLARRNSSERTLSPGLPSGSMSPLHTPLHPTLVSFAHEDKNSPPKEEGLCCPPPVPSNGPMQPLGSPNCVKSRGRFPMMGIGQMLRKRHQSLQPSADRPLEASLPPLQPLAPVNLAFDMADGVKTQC
Briefly: Selectivity interaction (KinomeScan (DiscoverX)) EUB0001619a HUNK. The conditions noted are these: at 1 µM.

The target of assay [4] is T4, Serine/threonine-protein kinase tousled-like 1 (Homo sapiens) (UniProt Q9UKI8).
T4 sequence (whole entry): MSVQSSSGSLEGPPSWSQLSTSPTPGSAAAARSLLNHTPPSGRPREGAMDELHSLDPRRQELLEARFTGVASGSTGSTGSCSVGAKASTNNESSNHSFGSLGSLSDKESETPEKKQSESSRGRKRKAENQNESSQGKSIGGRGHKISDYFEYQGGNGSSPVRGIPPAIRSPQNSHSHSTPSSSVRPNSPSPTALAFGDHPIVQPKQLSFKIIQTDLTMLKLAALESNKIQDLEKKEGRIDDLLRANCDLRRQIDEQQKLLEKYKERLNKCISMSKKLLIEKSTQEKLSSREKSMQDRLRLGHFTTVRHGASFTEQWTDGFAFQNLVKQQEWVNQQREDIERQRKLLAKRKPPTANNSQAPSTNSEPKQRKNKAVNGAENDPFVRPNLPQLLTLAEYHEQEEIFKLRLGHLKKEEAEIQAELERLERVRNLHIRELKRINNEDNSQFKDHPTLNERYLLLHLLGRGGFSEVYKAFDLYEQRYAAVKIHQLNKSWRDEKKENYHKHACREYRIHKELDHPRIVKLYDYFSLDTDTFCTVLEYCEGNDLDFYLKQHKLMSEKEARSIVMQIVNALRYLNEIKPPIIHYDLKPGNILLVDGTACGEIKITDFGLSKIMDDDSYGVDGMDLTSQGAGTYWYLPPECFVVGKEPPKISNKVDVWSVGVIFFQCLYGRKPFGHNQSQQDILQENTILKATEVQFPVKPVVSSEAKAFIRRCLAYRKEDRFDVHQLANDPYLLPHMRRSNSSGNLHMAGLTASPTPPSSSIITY
Briefly: Selectivity interaction (ActivX KiNativ screen (kinase selectivity in THP-1 cell lysates)) EUB0000639a TLK1. The format is subcellular. The conditions noted are these: lysate.

For assay [5], the target named is Serine/threonine-protein kinase SIK3 (Homo sapiens) (UniProt Q9Y2K2). Briefly: Selectivity interaction (KinomeScan (DiscoverX)) EUB0000655a SIK3. The conditions noted are these: at 10 µM.
Assay [6] addresses Dual specificity tyrosine-phosphorylation-regulated kinase 1B (Homo sapiens, UniProt Q9Y463). Briefly: Selectivity interaction (KinomeScan (DiscoverX)) EUB0000618a DYRK1B. The settings on record: at 10 µM.

Sequence of Dual specificity tyrosine-phosphorylation-regulated kinase 1B (Q9Y463 whole entry, looked up): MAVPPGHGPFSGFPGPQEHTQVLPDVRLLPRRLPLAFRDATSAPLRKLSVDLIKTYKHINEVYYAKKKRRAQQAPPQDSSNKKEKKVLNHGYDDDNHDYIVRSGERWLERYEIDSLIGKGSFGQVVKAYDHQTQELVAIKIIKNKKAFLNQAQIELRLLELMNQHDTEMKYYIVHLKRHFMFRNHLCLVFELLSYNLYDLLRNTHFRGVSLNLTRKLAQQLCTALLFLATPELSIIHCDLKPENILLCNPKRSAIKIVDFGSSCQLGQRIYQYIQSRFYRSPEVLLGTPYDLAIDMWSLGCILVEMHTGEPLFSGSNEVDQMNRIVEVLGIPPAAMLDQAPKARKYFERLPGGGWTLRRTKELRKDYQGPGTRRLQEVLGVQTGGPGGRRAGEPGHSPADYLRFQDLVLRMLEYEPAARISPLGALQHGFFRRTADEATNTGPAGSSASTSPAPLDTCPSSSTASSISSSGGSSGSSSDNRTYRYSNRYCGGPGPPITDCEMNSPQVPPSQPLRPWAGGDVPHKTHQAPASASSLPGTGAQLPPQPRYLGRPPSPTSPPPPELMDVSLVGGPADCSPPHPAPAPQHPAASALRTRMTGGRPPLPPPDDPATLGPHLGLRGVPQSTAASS
Sequence of Serine/threonine-protein kinase SIK3 (Homo sapiens) (Q9Y2K2 whole entry, looked up): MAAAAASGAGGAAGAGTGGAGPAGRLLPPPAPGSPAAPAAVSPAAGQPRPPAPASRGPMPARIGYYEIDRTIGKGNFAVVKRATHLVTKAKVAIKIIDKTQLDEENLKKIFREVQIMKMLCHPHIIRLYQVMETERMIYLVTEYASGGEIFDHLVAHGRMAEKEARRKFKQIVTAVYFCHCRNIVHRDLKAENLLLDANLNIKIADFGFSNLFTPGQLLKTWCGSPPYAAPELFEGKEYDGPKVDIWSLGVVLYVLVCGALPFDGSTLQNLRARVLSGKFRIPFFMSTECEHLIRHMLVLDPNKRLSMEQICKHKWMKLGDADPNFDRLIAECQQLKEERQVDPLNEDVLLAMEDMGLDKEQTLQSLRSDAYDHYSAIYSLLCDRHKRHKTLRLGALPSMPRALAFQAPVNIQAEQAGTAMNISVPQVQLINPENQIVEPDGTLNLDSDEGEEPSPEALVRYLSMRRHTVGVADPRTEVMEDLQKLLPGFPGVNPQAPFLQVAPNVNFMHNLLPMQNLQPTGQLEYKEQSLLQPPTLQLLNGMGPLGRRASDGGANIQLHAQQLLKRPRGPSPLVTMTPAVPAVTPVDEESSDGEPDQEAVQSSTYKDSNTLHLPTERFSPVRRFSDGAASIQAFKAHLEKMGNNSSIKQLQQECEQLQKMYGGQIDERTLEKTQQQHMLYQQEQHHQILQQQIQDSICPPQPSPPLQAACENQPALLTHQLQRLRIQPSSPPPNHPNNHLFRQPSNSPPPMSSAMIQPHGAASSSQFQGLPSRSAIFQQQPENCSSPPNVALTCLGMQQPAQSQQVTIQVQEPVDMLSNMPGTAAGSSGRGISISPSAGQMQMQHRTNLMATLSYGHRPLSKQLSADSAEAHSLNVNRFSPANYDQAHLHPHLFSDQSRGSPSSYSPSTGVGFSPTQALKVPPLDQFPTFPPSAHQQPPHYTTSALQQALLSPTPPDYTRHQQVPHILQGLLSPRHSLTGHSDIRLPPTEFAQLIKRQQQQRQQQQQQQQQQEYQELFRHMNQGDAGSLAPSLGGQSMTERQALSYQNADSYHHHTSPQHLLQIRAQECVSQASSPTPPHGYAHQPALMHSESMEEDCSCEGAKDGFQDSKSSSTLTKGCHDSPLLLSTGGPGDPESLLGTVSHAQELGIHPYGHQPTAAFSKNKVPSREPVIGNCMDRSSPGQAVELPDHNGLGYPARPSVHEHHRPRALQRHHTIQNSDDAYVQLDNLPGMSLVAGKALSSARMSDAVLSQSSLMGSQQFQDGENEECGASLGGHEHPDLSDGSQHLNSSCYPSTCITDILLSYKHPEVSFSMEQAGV

As to `Cn1cc(-n2cnc3c(NCc4nc5cc(Cl)c(Cl)cc5[nH]4)nc(N4CCOCC4)nc32)cn1`, in assay [1], the % of inhibition is -290%.

For `N#Cc1cccc(-c2c[nH]c3ncnc(N4CCOCC4)c23)c1`, the % of control in assay [2] stood at 37%; in assay [3], 100%.

As to `CC[C@@H]1[C@H](F)C(=O)N[C@@H]1COc1nccc2cc(C(N)=O)c(OC)cc12` [ZIMLOVISERTIB], the % of inhibition came out at 10.2% in assay [4] (at 0.01 µM); 21.8% in assay [4] (at 0.04 µM); 4.8% in assay [4] (at 0.2 µM); 54% in assay [4] (at 1 µM); 62.2% in assay [4] (at 5 µM).

In assay [5], `CN(C)CCOc1ccc(-c2nc(-c3ccncc3)c(-c3ccc4c(c3)CC/C4=N\O)[nH]2)cc1` had a % of control of 100%.

In turn, `O[C@H]1CC[C@H](Nc2ncc3nc(Nc4c(F)cc(F)cc4F)n([C@H]4CCOC4)c3n2)CC1` displayed a % of control in assay [6] of 100%.
